Results: paper PMC5458211, “Mitochondrial VDAC1-based peptides: Attacking oncogenic properties in glioblastoma” (Oncotarget, 2017)
Non-standard residues stand in square brackets, D forms with d. Residues, ends and D or L forms follow the SMILES beside them.

Key:
U-251MG cells = assay: Cell death by PI staining and flow cytometry, U-251MG; type: cell-based, human; conditions: 6 h at 37°C, serum-free medium, means ± SD (n=3), Fig 1H, read-out: IC50 for inducing cell death
Description: Figure 1 VDAC1-based peptides induce dramatic cell death of several brain tumor-derived cell lines but to lesser extent in primary brain cells A. IHC staining of VDAC1 of human normal brain (n=13) or glioblastoma (n=41) in tissue array slides (Biomax), as described in Materials and methods available online in Supplemental information. Percentages of sections stained at the intensity indicated are shown. […] The VDAC1-derived sequences Δ(1-14)N-terminus and LP4 are in green and pink, respectively. The cell-penetrating peptides Antp and Tf are in orange and blue, respectively. The loop shape of LP4 stabilized by a tryptophan zipper is in purple. The amino acids of Δ(1-14)N-terminus, LP4 and Antp are in the D configuration. The sequences of D-LP4 and Retro-D-LP4 are presented below. C. […] Cells were harvested, washed twice with PBS and cell death was analyzed by propidium iodide (PI) staining and flow cytometry. […] Cells were harvested, washed twice with PBS and cell death was analyzed by PI staining and flow cytometry. […]
Cells (6×10^5 /ml) were incubated in 500 μl serum-free medium with the peptide of interest for 6 h at 37°C in the presence of 5% CO2. The cells were then trypsinized, centrifuged (1500xg, 5 min), washed with PBS and analyzed for cell death using propidium iodide (PI) staining and flow cytometer (Beckton-Dickinson, San Jose, CA) and BD CellQuest Pro software. […]

HK-I-GFP = HK-I-GFP detachment from mitochondria by confocal microscopy, SH-SY5Y; type: cell-based, human; conditions: 7 μM, 3 h, serum-free medium, Suppl Fig 2A
Description: Mitochondrial VDAC1-based peptides: Attacking oncogenic properties in glioblastoma […]
Cell culture cells were fixed for 15 min using 4% paraformaldehyde prepared in PBS, rinsed with PBS, permabilized with 0.3%
Human glioblastoma U-87MG, U-118MG, CRL- PBST, and stained with DAPI (1:2000). Cell imaging was 2610 (LN-18), U-251MG, human neuroblastoma SH- carried out by confocal microscopy (Olympus 1X81).
SY5Y, mouse glioma GL-261 and mouse neuroblastoma […]
Cellular ATP levels were estimated using a luciferase-based assay (CellTiter-Glo, Promega). […] ATP levels were cytosol was analyzed by immunoblotting. […]
luminescence was recorded using an Infinite M1000 plate peptide (3, 5, 10 μM for 3h), harvested, washed with reader (Tecan, Männedorf, Switzerland). […]
ﬂuoride) containing 0.02% digitonin and incubated for Mitochondrial membrane potential (ΔΨ) was 10 min on ice. Samples were centrifuged at 12,000xg at determined using tetramethylrhodamine methylester 4°C for 10 min to obtain supernatants (cytosolic extracts (TMRM) dye. U-87MG cells (6×10^5/ml) were incubated free of mitochondria) that were analyzed by SDS-PAGE with the indicated concentrations of D-ΔN-Ter-Antp and immuno-probed using anti-hexokinase antibodies, peptide for 3 h, washed twice with PBS, incubated with and then with secondary HRP-conjugated anti-rabbit tetramethylrhodamine methyl ester (TMRM, 800 nM, antibodies. […]

Compound | IC50 (U-251MG cells) [µM] | HK-I-GFP detachment (fluorescence distribution) (HK-I-GFP)
CC[C@@H](C)[C@@H](NC(=O)[C@@H](CCCCN)NC(=O)[C@H](NC(=O)[C@@H](CCC(N)=O)NC(=O)[C@@H](CCCNC(=N)N)NC(=O)[C@@H](CC(C)C)NC(=O)CNC(=O)[C@@H](Cc1ccccc1)NC(=O)CNC(=O)[C@@H](Cc1ccc(O)cc1)NC(=O)CNC(=O)[C@@H](CCCCN)NC(=O)[C@H](NC(=O)[C@@H](Cc1ccccc1)NC(=O)[C@H](NC(=O)[C@@H](CC(=O)O)NC(=O)[C@H](N)CCCNC(=N)N)C(C)C)[C@H](C)O)[C@H](C)CC)C(=O)N[C@H](Cc1c[nH]c2ccccc12)C(=O)N[C@H](Cc1ccccc1)C(=O)N[C@H](CCC(N)=O)C(=O)N[C@H](CC(N)=O)C(=O)N[C@H](CCCNC(=N)N)C(=O)N[C@H](CCCNC(=N)N)C(=O)N[C@H](CCSC)C(=O)N[C@H](CCCCN)C(=O)N[C@H](Cc1c[nH]c2ccccc12)C(=O)N[C@H](CCCCN)C(=O)N[C@H](CCCCN)C(=O)O [D-ΔN-Ter-Antp] (H-[dR][dD][dV][dF][dT][dK]G[dY]G[dF]G[dL][dR][dQ][dI][dK][dI][dW][dF][dQ][dN][dR][dR][dM][dK][dW][dK][dK]-OH; N-terminus and C-terminus assumed) | 4.7 ± 0.9 | became diffuse
CC[C@H](C)[C@H](NC(=O)[C@H](C)NC(=O)[C@@H](N)Cc1c[nH]cn1)C(=O)N[C@@H](Cc1ccc(O)cc1)C(=O)N1CCC[C@H]1C(=O)N[C@@H](CCCNC(=N)N)C(=O)N[C@@H](Cc1c[nH]cn1)C(=O)N[C@@H](CO)C(=O)N[C@@H](Cc1c[nH]c2ccccc12)C(=O)N[C@H](C(=O)N[C@@H](Cc1c[nH]c2ccccc12)C(=O)N[C@@H](CCC(=O)O)C(=O)N[C@H](CCCCN)C(=O)N[C@H](CCCCN)C(=O)N[C@H](CC(C)C)C(=O)N[C@H](CCC(=O)O)C(=O)N[C@@H](C(=O)N[C@H](C)C(=O)N[C@@H](C(=O)N[C@H](CC(N)=O)C(=O)N[C@H](CC(C)C)C(=O)N[C@H](C)C(=O)N[C@H](Cc1c[nH]c2ccccc12)C(=O)N[C@@H](C(=O)N[C@H](C)C(=O)NCC(=O)N[C@H](CC(N)=O)C(=O)N[C@H](CO)C(=O)N[C@H](CC(N)=O)C(=O)N[C@@H](CCCCN)C(=O)N[C@@H](Cc1c[nH]c2ccccc12)C(=O)N[C@H](C(=O)N[C@@H](Cc1c[nH]c2ccccc12)C(=O)N[C@@H](CCCCN)C(=O)O)[C@@H](C)O)[C@H](C)O)C(C)C)[C@H](C)O)[C@@H](C)O [Tf-D-LP4] |  | became diffuse
